Test results from patent publication US20020155172A1, “Methods and compounds for decreasing cell toxicity or death” (priority 2000, published 2002).

Columns and labels:
[1] = test system: HeLa cells transfected with a Q79-GFP construct; assay: Polyglutamine-induced cell death in HeLa cells; assay type: cell-based
Protocol: FIG. 4A is two graphs showing the effect of Congo red, tetracyclines, and sulfated polyanions on polyglutamine-induced cell death in, each graph representing a separate experiment. HeLa cells transfected with a Q79-GFP construct were treated with 100 μM of minocycline (mino), Chrysamine G (CG), Rolitetracycline (Ro), iota carrageenan (iota), dextran 500 (dextran), or Congo red (CR), six hours after transfection. The amount of cell death was determined 48 hours after transfection by morphological criteria as previously described (Sanchez et al., supra).
In a cell expressing Q79-GFP polypeptides, polyglutamine aggregates are formed and the cell dies by apoptosis (Sanchez, supra). Cell viability was determined by morphological criteria characteristic of apoptosis, including cell blebbing, shrinking. Total cell lysates and tissue homogenates were obtained using Buffer A: 1% triton in PBS, containing 10 μg/ml DNAse and protease inhibitors; leupeptin 20 μg/ml, aprotinin 20 u/ml, and PMSF 100 mM. The proteins were separated by 12% SDS/PAGE and transferred to PVDF Immobilon membrane (Millipore, Inc). Antibodies used included rabbit polyclonal antibodies; EM48 (Li et al., Mol. Neurobiol. 20:111-124, 2000) anti-heat shock proteins 40 and 70 (Stressgen, Co.), and rat monoclonal anti-caspase-8 antibody.
These effects were determined by visual inspection of GFP-positive cells under an inverted fluorescence microscope. In addition, the occurrence of apoptosis of these transfected cell samples was confirmed by staining the cells with trypan blue, propidium iodide, or Hoescht 33342 to examine the cellular or nuclear morphology.
Compounds that disrupt other types of aggregates, for example, amyloid fibril aggregates were tested for their ability to disrupt pre-formed polyglutamine aggregates. HeLa Cells were transfected with a Q79-GFP construct. Six hours later, Iota-carrageenan, dextran, minocycline, rolitetracycline, and Chrysamine G (1 nM to 100 μM) were each incubated with the cells. Seventy-two hours post-transfection, the cells were evaluated for the occurrence of cell death, by visual inspection under an inverted fluorescence microscope.

[2] = test system: HeLa cells transfected with the Q79-GFP plasmid; assay: Cell death by receptor-mediated pathways (TNF-α or anti-FasR with cycloheximide); assay type: cell-based; conditions: Congo red 100 μM, 72 hours
Protocol: FIG. 4B is a graph showing the effect of Congo red (CR) on the induction of cell death by receptor-mediated pathways. HeLa cells transfected with a Q79-GFP plasmid were treated with TNF-a or anti-FasR and cycloheximide (CHX), in the presence or absence of CR (100 μM). The amount of cell death was measured 72 hours after transfection.
The effect of Congo red on the induction of cell death by receptor-mediated pathways was also evaluated. Once again, HeLa cells were transfected with the Q79-GFP plasmid, and six hours later were administered Tumor Necrosis Factor-alpha (TNF-α) or anti-FasR in the presence of cycloheximide (CHX). The samples were then incubated with or without Congo red (100 μM). The amount of cell death was measured 72 hours after exposure to the compounds (FIG. 4B).

[3] = test system: HeLa cells expressing Q79 expanded polyglutamine repeats; assay: Cell death induced by TNF-α/CHX, Fas/CHX or H2O2; assay type: cell-based; conditions: 100 μM, one hour before the inducing agent; cell death 48 hours later
Protocol: FIG. 5F is a graph of the effects of Congo red, ZVAD, or vehicle (NT) on cell death when the cells are induced to die by receptor mediated pathways (TNF-α/cycloheximide (CHX), Fas/cycloheximide (CHX)), or necrosis (hydrogen peroxide).
(§1) HeLa cells expressing Q79 expanded polyglutamine repeats were treated with 100 μM Congo red, or 100 μM ZVAD (a positive control) for one hour prior to the addition of the apoptosis-inducing agent, and cell death was determined 48 hours later. […] Finally we tested whether Congo red can inhibit apoptosis induced by overexpression of caspase-1, -8, or -11.

[4] = test system: HeLa cells transfected with Q79-GFP; assay: Q79-GFP aggregates in HeLa cells by fluorescence microscopy; assay type: cell-based; conditions: 100 μM
Protocol: FIG. 5I is a set of scanned images of HeLa cells expressing Q79-GFP and subsequently treated with Congo red (100 μM), or ZVAD (100 μM), as detected by fluorescence microscopy.
Changes in energy metabolism have been detected in brains of pre-symptomatic HD animal models, and in pre-symptomatic patients. We detected a pronounced decline in ATP levels upon expanded polyglutamine expression in cells as early as 24 hours. […] Expression of Q79-GFP in HeLa cells transfected with Q79-GFP and subsequently treated with Congo red (100 μM), or ZVAD (100 μM), is shown in FIG. 51.

Q79-GFP aggregates = assay: Decrease of pre-formed Q79-GFP aggregates in vitro; assay type: biochemical
Protocol: Q79-GFP was expressed and purified from bacteria using standard molecular biology techniques. These fusion proteins form aggregates in vitro which can be viewed under an inverted fluorescence microscope. The Q79-GFP aggregates were administered Congo red (1 nM to 100 μM) and the ability of Congo red to decrease the aggregate was visually assessed.
This assay was also carried out on Q79-GFP aggregates that were administered compounds known to disrupt other types of aggregates, for example, beta-amyloid fibril aggregates. The Q79-GFP aggregates were administered Iota-carrageenan, dextran, minocycline, rolitetracycline, or Chrysamine G Congo red (100 μM each), and visually examined for the effect of each compound on disruption of the aggregate, as well as the density and size of the aggregates.

RIP, FADD, and Daxx = assay: Apoptosis induced by overexpression of adapter proteins; assay type: cell-based
Protocol: FIG. 5G is a graph of the effects of Congo red on cell death induced by adapter protein oligomerization (Daxx, RIP, FADD).
as §1

HSP40 and HSP70 = assay: Expression of chaperone proteins; assay type: cell-based; conditions: Q79-expressing (HA-Q79) HeLa cells
Excerpt: We examined whether the destabilizing effect of Congo red on polyglutamine oligomers in HeLa cells expressing expanded polyglutamine repeats was caused indirectly through increased expression of endogenous chaperones (FIG. 5E). Lysates from Congo red-treated or control cells expressing expanded polyglutamine repeats (HA-[…]) were separated by SDS-PAGE and probed with anti-HSP70, anti-HSP40, and anti-HA antibodies to detect polyglutamine repeats.

SMILES: Nc1c(/N=N/c2ccc(-c3ccc(/N=N/c4cc(S(=O)(=O)O)c5ccccc5c4N)cc3)cc2)cc(S(=O)(=O)O)c2ccccc12 [Congo red, diphenyldiazo-bis-alpha-napthylaminesulfonate]
- cell death, as indicated by morphology ([1]; HA-tagged Q79-GFP, caspase-8 experiment): significantly inhibited ATP loss and cell death
- Polyglutamine-induced Cell Death ([1]; Q79-GFP, compound added six hours after transfection, 1 nM to 100 μM (FIG. 4A: 100 μM), seventy-two hours post-transfection): + (Each + indicates approximately 20% cell death.)
- induction of cell death by receptor-mediated pathways [2]: does not alter the induction of cell death by receptor-mediated pathways
- cell death induced by TNF-α/CHX, Fas/CHX, or H2O2 [3]: No effect
- polyglutamine aggregates in cells [4]: displayed fewer polyglutamine aggregates
- decrease of pre-formed polyglutamine aggregates (Q79-GFP aggregates; 1 nM to 100 μM, visually assessed): decreased the pre-formed polyglutamine aggregates
- dissolution or disruption of pre-formed expanded polyglutamine repeat aggregates (Q79-GFP aggregates; 100 μM each, visually examined): dissolution or disruption of pre-formed expanded polyglutamine repeat aggregates were detected
- apoptosis induced by overexpression of RIP, FADD, or Daxx (RIP, FADD, and Daxx): had no effect on apoptosis induced by overexpression of RIP, FADD, or Daxx
- expression of HSP40 or HSP70 (HSP40 and HSP70): did not induce the expression of HSP40 or HSP70
